# Data published in PubChem BioAssay AID1963446 (Molecular Pharmacology Branch, DTP, NCI, 2024).
# Where “and” joins values, the source holds several entries; their conditions need not be identical. Equal entries are not always repeated.
# Test system: 993429-296-R-J1-PDC complex spheroid growth, percent test/control
# Assay: Anticancer human tumor 993429-296-R-J1-PDC patient-derived uterine sarcoma cell line growth inhibition [Asc]
# Settings: for viability, T/C: stronger effect = lower value
# Summary of the method: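 Tumor cells were grown as multicellular spheroids with stromal HUVEC and mesenchymal stem cells and treated singly or in combination. Concentrations fell in half-log steps from the clinical Cmax, or from 10 microM where none was known.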
# [1] = curve of first compound, second compound 0.1 µM
# [2] = curve of first compound, second compound 0.316 µM
# [3] = curve of first compound, second compound 1 µM
# [4] = second compound 0.1 µM, first compound 0.0316 µM
# [5] = second compound 0.1 µM, first compound 0.1 µM
# [6] = second compound 0.1 µM, first compound 0.316 µM
# [7] = second compound 0.1 µM, first compound 1 µM
# [8] = second compound 0.1 µM, first compound 3.16 µM
# [9] = second compound 0.1 µM, first compound 10 µM
# [10] = second compound 0.316 µM, first compound 0.0316 µM
# [11] = second compound 0.316 µM, first compound 0.1 µM
# [12] = second compound 0.316 µM, first compound 0.316 µM
# [13] = second compound 0.316 µM, first compound 1 µM
# [14] = second compound 0.316 µM, first compound 3.16 µM
# [15] = second compound 0.316 µM, first compound 10 µM
# [16] = second compound 1 µM, first compound 0.0316 µM
# [17] = second compound 1 µM, first compound 0.1 µM
# [18] = second compound 1 µM, first compound 0.316 µM
# [19] = second compound 1 µM, first compound 1 µM
# [20] = second compound 1 µM, first compound 3.16 µM
# [21] = second compound 1 µM, first compound 10 µM
# 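Note: spheroids exposed to compounds for seven days.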
smiles,measurement,setting,value
C#Cc1c(F)ccc2cc(O)cc(-c3ncc4c(N5CC6CCC(C5)N6)nc(OCC56CCCN5CC(F)C6)nc4c3F)c12 (configuration not stated) + CNC(C)C(=O)NC1CN(S(=O)(=O)c2cccc(S(=O)(=O)N3CCC4CCC(C(=O)NC(c5ccccc5)c5ccccc5)N4C(=O)C(NC(=O)C(C)NC)C3)c2)CCC2CCC(C(=O)NC(c3ccccc3)c3ccccc3)N2C1=O,IC50,"curve of first compound, second compound 0.01 µM",4700 nM
same,IC50,"curve of first compound, second compound 0.0316 µM",4620 nM
same,IC50,[1],2630 nM
same,IC50,[2],3310 nM
same,IC50,[3],< 31.6 nM
same,"viability, T/C","second compound 0.01 µM, first compound 0.0316 µM",71.7%
same,"viability, T/C","second compound 0.01 µM, first compound 0.1 µM",67.2%
same,"viability, T/C","second compound 0.01 µM, first compound 0.316 µM",69.5%
same,"viability, T/C","second compound 0.01 µM, first compound 1 µM",57.3%
same,"viability, T/C","second compound 0.01 µM, first compound 3.16 µM",64.3%
same,"viability, T/C","second compound 0.01 µM, first compound 10 µM",25.6%
same,"viability, T/C","second compound 0.0316 µM, first compound 0.0316 µM",58.8%
same,"viability, T/C","second compound 0.0316 µM, first compound 0.1 µM",66.6%
same,"viability, T/C","second compound 0.0316 µM, first compound 0.316 µM",56.5%
same,"viability, T/C","second compound 0.0316 µM, first compound 1 µM",67.4%
same,"viability, T/C","second compound 0.0316 µM, first compound 3.16 µM",60.5%
same,"viability, T/C","second compound 0.0316 µM, first compound 10 µM",28%
same,"viability, T/C",[4],61%
same,"viability, T/C",[5],62.1%
same,"viability, T/C",[6],67.1%
same,"viability, T/C",[7],61.7%
same,"viability, T/C",[8],47.7%
same,"viability, T/C",[9],28.4%
same,"viability, T/C",[10],45.2%
same,"viability, T/C",[11],55.8%
same,"viability, T/C",[12],43.3%
same,"viability, T/C",[13],48.8%
same,"viability, T/C",[14],64.7%
same,"viability, T/C",[15],16.3%
same,"viability, T/C",[16],49.9%
same,"viability, T/C",[17],50.2%
same,"viability, T/C",[18],39.5%
same,"viability, T/C",[19],58%
same,"viability, T/C",[20],50.2%
same,"viability, T/C",[21],25%
NC(=O)C(=Cn1cnc(-c2cc(C(F)(F)F)cc(C(F)(F)F)c2)n1)c1cncnc1,"viability, T/C",compound 0.000949 µM,94.3% and 102% and 110%
same,"viability, T/C",compound 0.003 µM,82.4% and 87.5% and 105%
same,"viability, T/C",compound 0.00949 µM,76.6% and 76% and 91.7%
same,"viability, T/C",compound 0.03 µM,41.9% and 34.6% and 60.8%
same,"viability, T/C",compound 0.0949 µM,17% and 17.8% and 30.1%
same,"viability, T/C",compound 0.3 µM,8.93% and 7.15% and 11.8%
same,IC50,curve of compound,23 nM and 19.9 nM and 45.4 nM
NC(=O)C(=Cn1cnc(-c2cc(C(F)(F)F)cc(C(F)(F)F)c2)n1)c1cncnc1 + CCN1C(C(=O)NC23CCC(C(=O)O)(CC2)CC3)C(c2cccc(Cl)c2F)C2(C(=O)Nc3cc(Cl)ccc32)C12CCCCC2,IC50,"curve of first compound, second compound 0.03 µM",18.6 nM
same,IC50,"curve of first compound, second compound 0.0949 µM",15.5 nM
same,IC50,"curve of first compound, second compound 0.3 µM",14 nM
same,IC50,"curve of first compound, second compound 0.949 µM",20.3 nM
same,IC50,"curve of first compound, second compound 3 µM",13.3 nM
same,"viability, T/C","second compound 0.03 µM, first compound 0.000949 µM",98%
same,"viability, T/C","second compound 0.03 µM, first compound 0.003 µM",97.9%
same,"viability, T/C","second compound 0.03 µM, first compound 0.00949 µM",71%
same,"viability, T/C","second compound 0.03 µM, first compound 0.03 µM",34%
same,"viability, T/C","second compound 0.03 µM, first compound 0.0949 µM",17.8%
same,"viability, T/C","second compound 0.03 µM, first compound 0.3 µM",9.36%
same,"viability, T/C","second compound 0.0949 µM, first compound 0.000949 µM",95.3%
same,"viability, T/C","second compound 0.0949 µM, first compound 0.003 µM",87%
same,"viability, T/C","second compound 0.0949 µM, first compound 0.00949 µM",63.4%
same,"viability, T/C","second compound 0.0949 µM, first compound 0.03 µM",31.9%
same,"viability, T/C","second compound 0.0949 µM, first compound 0.0949 µM",14.9%
same,"viability, T/C","second compound 0.0949 µM, first compound 0.3 µM",8.83%
same,"viability, T/C","second compound 0.3 µM, first compound 0.000949 µM",89.3%
same,"viability, T/C","second compound 0.3 µM, first compound 0.003 µM",85.6%
same,"viability, T/C","second compound 0.3 µM, first compound 0.00949 µM",55.4%
same,"viability, T/C","second compound 0.3 µM, first compound 0.03 µM",33.4%
same,"viability, T/C","second compound 0.3 µM, first compound 0.0949 µM",19.7%
same,"viability, T/C","second compound 0.3 µM, first compound 0.3 µM",9.08%
same,"viability, T/C","second compound 0.949 µM, first compound 0.000949 µM",83%
same,"viability, T/C","second compound 0.949 µM, first compound 0.003 µM",90%
same,"viability, T/C","second compound 0.949 µM, first compound 0.00949 µM",83.3%
same,"viability, T/C","second compound 0.949 µM, first compound 0.03 µM",33%
same,"viability, T/C","second compound 0.949 µM, first compound 0.0949 µM",14%
same,"viability, T/C","second compound 0.949 µM, first compound 0.3 µM",7.67%
same,"viability, T/C","second compound 3 µM, first compound 0.000949 µM",81.7%
same,"viability, T/C","second compound 3 µM, first compound 0.003 µM",87.5%
same,"viability, T/C","second compound 3 µM, first compound 0.00949 µM",55.4%
same,"viability, T/C","second compound 3 µM, first compound 0.03 µM",29.8%
same,"viability, T/C","second compound 3 µM, first compound 0.0949 µM",13%
same,"viability, T/C","second compound 3 µM, first compound 0.3 µM",8.21%
C#Cc1c(F)ccc2cc(O)cc(-c3ncc4c(N5CC6CCC(C5)N6)nc(OCC56CCCN5CC(F)C6)nc4c3F)c12 (configuration not stated) + Cc1c(S(C)(=O)=O)c(-c2cc(F)cc(N3CCN(c4ccc(NS(=O)(=O)c5ccc(NC(CCN6CCC(C(=O)OCCCP(=O)(O)O)CC6)CSc6ccccc6)c(S(=O)(=O)C(F)(F)F)c5)cc4)CC3)c2)c(-c2ccc(Cl)cc2)n1C(C)C,IC50,[1],2930 nM
same,IC50,[2],1410 nM
same,IC50,[3],1450 nM
same,IC50,"curve of first compound, second compound 3.16 µM",< 31.6 nM
same,IC50,"curve of first compound, second compound 10 µM",2750 nM
same,"viability, T/C",[4],70.7%
same,"viability, T/C",[5],69.9%
same,"viability, T/C",[6],64.8%
same,"viability, T/C",[7],67.3%
same,"viability, T/C",[8],48.8%
same,"viability, T/C",[9],2.44%
same,"viability, T/C",[10],55.4%
same,"viability, T/C",[11],73.8%
same,"viability, T/C",[12],66.5%
same,"viability, T/C",[13],53.1%
same,"viability, T/C",[14],36%
same,"viability, T/C",[15],1.38%
same,"viability, T/C",[16],60.1%
same,"viability, T/C",[17],55.9%
same,"viability, T/C",[18],50.7%
same,"viability, T/C",[19],67.3%
same,"viability, T/C",[20],32%
same,"viability, T/C",[21],0.37%
same,"viability, T/C","second compound 3.16 µM, first compound 0.0316 µM",53.6%
same,"viability, T/C","second compound 3.16 µM, first compound 0.1 µM",45.6%
same,"viability, T/C","second compound 3.16 µM, first compound 0.316 µM",45.6%
same,"viability, T/C","second compound 3.16 µM, first compound 1 µM",36%
same,"viability, T/C","second compound 3.16 µM, first compound 3.16 µM",33%
same,"viability, T/C","second compound 3.16 µM, first compound 10 µM",0.32%
same,"viability, T/C","second compound 10 µM, first compound 0.0316 µM",94.9%
same,"viability, T/C","second compound 10 µM, first compound 0.1 µM",98.8%
same,"viability, T/C","second compound 10 µM, first compound 0.316 µM",88.1%
same,"viability, T/C","second compound 10 µM, first compound 1 µM",74.5%
same,"viability, T/C","second compound 10 µM, first compound 3.16 µM",46.9%
same,"viability, T/C","second compound 10 µM, first compound 10 µM",2.69%
